This note sets out measurements from patent US5169841A, “Renin inhibitors” (Hoechst Aktiengesellschaft, priority 1987, dated 1992).

This assay deals with T1, human plasma renin (Homo sapiens, UniProt P00797).
T1 construct: from tissue; host or cells: human EDTA plasma from volunteer subjects
T1 sequence (P00797 67-406): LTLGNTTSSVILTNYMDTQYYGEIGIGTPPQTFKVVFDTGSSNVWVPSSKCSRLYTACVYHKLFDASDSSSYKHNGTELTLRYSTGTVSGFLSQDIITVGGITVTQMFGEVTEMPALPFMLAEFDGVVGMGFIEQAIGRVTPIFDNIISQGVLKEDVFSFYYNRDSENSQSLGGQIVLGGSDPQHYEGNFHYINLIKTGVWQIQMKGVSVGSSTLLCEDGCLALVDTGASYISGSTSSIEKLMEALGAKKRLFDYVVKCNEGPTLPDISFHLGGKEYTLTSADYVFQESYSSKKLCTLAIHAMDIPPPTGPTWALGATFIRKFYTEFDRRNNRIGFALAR
In words: Inhibition of angiotensin I formation in human plasma (Renin-Maia radioimmunoassay). It is filed as biochemical. The settings on record: 37° C., 1 hour, % residual plasma renin activity by angiotensin I RIA. As for the experimental part:
The activity of renin inhibitors can be checked by in vitro tests. These entail the decrease in the formation of angiotensin I being measured in various systems (human plasma, purified human renin).
For example human plasma which contains both renin and angiotensinogen is incubated at 37° C. with the compound to be tested. During this, angiotensin I is liberated from angiotensinogen under the action of renin and can subsequently be measured using a commercially available radioimmunoassay. This liberation of angiotensin is inhibited by renin inhibitors.
The blood is obtained from volunteer subjects (about 0.5 litre per person; Bluko sampler from ASID Bonz and Sohn, Unterschleissheim) and is collected in partially evacuated bottles while cooling in ice. Coagulation is prevented by addition of EDTA (final concentration 10 mM). After centrifugation, (HS 4 Rotor (Sorvall), 3500 rpm, 0°-4° C., 15 min; repeat if necessary), the plasma is carefully removed with a pipette and frozen in suitable portions at -30° C. Only plasma with sufficiently high renin activity are used for the test. Plasma with low renin activity are activated by cold treatment (-4° C., 3 days (prorenin→renin).
Angiotensin I is determined using the Renin-Maia® Kit (Serono Diagnostics S. A., Coinsins, Switzerland). The plasma is incubated in accordance with the instructions given therein:
1000 μl of plasma (defrozen at 0-4° C.)
100 μl of phosphate buffer (ph 7.4)
10 μl of 0.1% Genapol PFIC
12 μl of DMSO or test product
The test products are generally dissolved 10^-2 M in 100% dimethylsulfoxide (DMSO) and diluted appropriately with DMSO; the incubation mixture contains not more than 1% DMSO.
The mixtures are mixed up in ice and placed in a water bath (37° C.) for 1 hour for the incubation. 6 samples in total (each of 100 μl) are taken from an additional mixture without inhibitor and without further incubation for the determination of the initial angiotensin I content of the plasma used.
The concentrations of the test products are selected such that the 10-90% range of enzyme inhibition is approximately covered (at least five concentrations). At the end of the incubation time, three 100 μl samples from each mixture are frozen in precooled Eppendorf tubes on dry ice and stored at about -25° C. for the determination of angiotensin I (means from three individual samples).
The instructions for use of the RIA Kit (Rennin-Maia® Kit, Serono Diagnostics S. A., Coinsins, Switzerland) are followed exactly.
The calibration plot embraces the range from 0.2 to 25.0 ng of angiotensin I per ml. The basic angiotensin I content of the plasma is subtracted from all the measured values. The plasma renin activity (PRA) is reported as ng of Ang I/ml x hour. PRA values in the presence of the test substances are related to a mixture without inhibitor (=100%) and reported as % residual activity. The IC50 value is read off from the plot of % residual activity against the concentration (M) of the test product (logarithmic scale).

As to `CC(C)[C@H](NC(=O)C(Cc1ccccc1)CS(=O)(=O)C(C)(C)C)C(=O)NC(CC1CCCCC1)B1OC(C)(C)C(C)(C)O1` (some centres unmarked) [Example 39, (2-Benzyl,3-t-butylsulfonyl)propionyl-Val-[cyclohexylmethyl,(4,4,5,5-tetramethyl-1,3,2-dioxaborolane-2yl)]-methylamide], the IC50 was determined as 2.1 µM.
The molecule `CCC[C@H](NC(=O)C(Cc1cccc2ccccc12)CS(=O)(=O)C(C)(C)C)C(=O)NC(CC(C)C)B1OC(C)(C)C(C)(C)O1` (some centres unmarked) [Example 42, [3-t-Butylsulfonyl,2-(1-naphthylmethyl)]propionyl-Nva-[3-methyl,1-(4,4,5,5-tetramethyl-1,3,2-dioxaborolane-2-yl)]butylamide] came in with an IC50 of 0.95 µM.
On to `CCC[C@H](NC(=O)[C@H](Cc1ccccc1)NC(=O)CC(C)C)C(=O)NC(CC1CCCCCC1)B1OC(C)(C)C(C)(C)O1` (some centres unmarked) [Example 16], for which 3 µM corresponded to half-maximal inhibition (IC50).
In the case of `CC(C)CC(=O)N[C@@H](Cc1ccccc1)C(=O)N[C@@H](Cc1c[nH]cn1)C(=O)NC(CC1CCCCCC1)B1OC(C)(C)C(C)(C)O1` (stereo partly drawn) [Example 19, Iva-Phe-His-[cycloheptylmethyl,(4,4,5,5-tetramethyl-1,3,2-dioxaborolane-2-yl)]methylamide], the IC50 amounted to 8 µM.
For the molecule `CCC[C@H](NC(=O)C(Cc1cccs1)CS(=O)(=O)C(C)(C)C)C(=O)NC(CC1CCCCCC1)B1OC(C)(C)C(C)(C)O1` (some centres unmarked) [Example 41, [3-t-Butylsulfonyl,2-(2-thienylmethyl)]propionyl-Nva-[cycloheptylmethyl,(4,4,5,5-tetramethyl-1,3,2-dioxaborolane-2-yl)]methylamide], 1.5 µM corresponded to half-maximal inhibition (IC50).
`CCC[C@H](NC(=O)C(Cc1ccccc1)CS(=O)(=O)C(C)(C)C)C(=O)NC(CC(CC)CC)B1OC(C)(C)C(C)(C)O1` (some centres unmarked) [Example 52, (2-Benzyl,3-t-butylsulfonyl)propionyl-Nvu-[3-ethyl,1-(4,4,5,5-tetramethyl-1,3,2-dioxaborolane-2-yl)]pentylamide] registered an IC50 of 2.8 µM.
`CCC[C@H](NC(=O)C(Cc1ccccc1)CS(=O)(=O)C(C)(C)C)C(=O)NC(CC1CCCC1)B1OC(C)(C)C(C)(C)O1` (some centres unmarked) [Example 44, (2-Benzyl,3-t-butylsulfonyl)propionyl-Nva-[cyclopentylmethyl,(4,4,5,5-tetramethyl-1,3,2-dioxaborolane-2-yl)]-methylamide] came in with an IC50 of 2.4 µM.
Molecule `CCC[C@H](NC(=O)[C@H](Cc1ccccc1)NC(=O)CC(C)C)C(=O)NC(CC1CCC(C)CC1)B1OC(C)(C)C(C)(C)O1` (stereo partly drawn) [Example 15, Iva-Phe-Nva-[(4-methylcyclohexyl)methyl,(4,4,5,5-tetramethyl-1,3,2-dioxaborolane-2-yl)]methylamide] had an IC50 of 2.8 µM.
For `CC(C)CC(=O)N[C@@H](Cc1ccccc1)C(=O)N[C@@H](Cc1c[nH]cn1)C(=O)NC(CC1CCCCC1)B1OC(C)(C)C(C)(C)O1` (stereo partly drawn) [Example 3, Iva-Phe-His-[cyclohexylmethyl,(4,4,5,5-tetramethyl-1,3,2-dioxaborolane-2-yl)]methylamide] the value was 2 µM; for `CCC[C@H](NC(=O)C(Cc1cccc2ccccc12)CS(=O)(=O)C(C)(C)C)C(=O)NC(CC1CCCC1)B1OC(C)(C)C(C)(C)O1` (some centres unmarked) [Example 50], 1.5 µM.
Molecule `CC(C)CC(=O)N[C@@H](Cc1ccccc1)C(=O)N[C@@H](Cc1cccs1)C(=O)NC(CC1CCCCC1)B1OC(C)(C)C(C)(C)O1` (stereo partly drawn) [Example 7, Iva-Phe-Thi-[cyclohexylmethyl,(4,4,5,5-tetramethyl-1,3,2-dioxaborolane-2-yl)]methylamide] returned an IC50 of 0.67 µM.
The value for `CC1(C)OB(C(CC2CCCCC2)NC(=O)[C@H](Cc2cccs2)NC(=O)C(Cc2cccs2)CS(=O)(=O)C(C)(C)C)OC1(C)C` (some centres unmarked) [Example 43, [3-t-Butylsulfonyl,2-(2-thienylmethyl)]propionyl-Thi-[cyclohexylmethyl,(4,4,5,5-tetramethyl-1,3,2-dioxaborolane-2-yl)]methylamide] was 0.55 µM; that for `CCC[C@H](NC(=O)[C@H](Cc1ccccc1)NC(=O)CC(C)C)C(=O)NC(CC1CCCCC1)B(O)O` (stereo partly drawn) [Example 5, Iva-Phe-Nva-(cyclohexylmethyl,dihydroxyboryl)methylamide] was 0.55 µM; that for `CCC[C@H](NC(=O)[C@H](Cc1ccccc1)NC(=O)CC(C)C)C(=O)NC(CC1CCCCC1)B1OC2CC3CC(C3(C)C)C2(C)O1` (single isomer, unassigned) [Example 13, Iva-Phe-Nva-[cyclohexylmethyl, (-)-pinanedioxyboryl]-methylamide] was 2.4 µM.
In turn, `CCC[C@H](NC(=O)C(Cc1cccs1)CS(=O)(=O)C(C)(C)C)C(=O)NC(CC1CCCCC1)B1OC(C)(C)C(C)(C)O1` (some centres unmarked) [Example 35, [3-t-Butylsulfonyl,2-(2-thienylmethyl)]propionyl-Nva-[cyclohexylmethyl,(4,4,5,5-tetramethyl-1,3,2-dioxaborolane-2-yl)]methylamide] returned an IC50 of 0.28 µM.
Turning to `CCC[C@H](NC(=O)C(Cc1ccccc1)CS(=O)(=O)C(C)(C)C)C(=O)NC(CC1CCCCC1)B1OC(C)(C)C(C)(C)O1` (some centres unmarked) [Example 36, (2-Benzyl,3-t-butylsulfonyl)propionyl-Nva-[cyclohexylmethyl,(4,4,5,5-tetramethyl-1,3,2-dioxaborolane-2-yl)]methylamide], the IC50 was found to be 0.62 µM.
For the molecule `CC1(C)OB(C(CC2CCCCCC2)NC(=O)[C@H](Cc2cccs2)NC(=O)C(Cc2cccs2)CS(=O)(=O)C(C)(C)C)OC1(C)C` (some centres unmarked) [Example 40, [3-t-Butylsulfonyl,2-(2-thienylmethyl)]propionyl-thi[cycloheptylmethyl,(4,4,5,5-tetramethyl-1,3,2-dioxaborolane-2-yl)]methylamide], the IC50 was 3.6 µM.
As to `CCC[C@H](NC(=O)[C@H](Cc1ccccc1)NC(=O)CC(C)C)C(=O)NC(CC1CCCCC1)B1OC(C)(C)C(C)(C)O1` (stereo partly drawn) [Example 1, Iva-Phe-Nva-[cyclohexylmethyl,(4,4,5,5-tetramethyl-1,3,2-dioxaborolane-2-yl)]methylamide], the IC50 is 0.42 µM.
`CC(C)CC(=O)N[C@@H](Cc1cccs1)C(=O)N[C@@H](Cc1c[nH]cn1)C(=O)NC(CC1CCCCC1)B1OC(C)(C)C(C)(C)O1` (stereo partly drawn) [Example 4, Iva-Thi-His-[cyclohexylmethyl,(4,4,5,5-tetramethyl-1,3,2-dioxaborolane-2-yl)]methylamide] returned an IC50 of 0.45 µM.
Take `CCC[C@H](NC(=O)C(Cc1cccc2ccccc12)CS(=O)(=O)C(C)(C)C)C(=O)NC(CC(CC)CC)B1OC(C)(C)C(C)(C)O1` (some centres unmarked) [Example 51, [3-t-Butylsulfonyl,2-(1-naphthylmethyl)]propionyl-Nva-[3-ethyl,1-(4,4,5,5-tetramethyl-1,3,2-dioxaborolane-2-yl)]-pentylamide]: the IC50 stood at 1.8 µM.
For `CC1(C)OB(C(CC2CCCCC2)NC(=O)[C@H](CC(N)=O)NC(=O)C(Cc2cccs2)CS(=O)(=O)C(C)(C)C)OC1(C)C` (some centres unmarked) [Example 54, (3-t-Butylsulfonyl,2-(2-thienylmethyl)]propionyl-Asn-[cyclohexylmethyl,(4,4,5,5-tetramethyl-1,3,2-dioxaborolane-2-yl)]methylamide] the value was 0.9 µM; for `CCCC[C@H](NC(=O)[C@H](Cc1ccccc1)NC(=O)CC(C)C)C(=O)NC(CC1CCCCC1)B1OC(C)(C)C(C)(C)O1` (stereo partly drawn) [Example 2, Iva-Phe-Nle-[cyclohexylmethyl,(4,4,5,5-tetramethyl-1,3,2-dioxaborolane-2-yl)]methylamide], 1 µM.
Consider `CC(C)CC(=O)N[C@@H](Cc1ccccc1)C(=O)N[C@@H](Cc1c[nH]cn1)C(=O)NC(CC1CCCCCCC1)B1OC(C)(C)C(C)(C)O1` (stereo partly drawn) [Example 18, Iva-Phe-His-[cycloctylmethyl,(4,4,5,5-tetramethyl-1,3,2-dioxaborolane-2-yl)]methylamide], for which the IC50 is 9 µM.

The term IC50 denotes the concentration needed to halve the response being measured. A higher IC50 goes with a need for much substance.
